Assay results reported in ChEMBL document CHEMBL5042556, “Lead Optimization to Advance Protease-Activated Receptor-1 Antagonists in Early Discovery” (J Med Chem, 2022).
Each block holds one compound with its values, some of them ahead of it.

Legend:
[1] = target: Voltage-gated inwardly rectifying potassium channel KCNH2 (Homo sapiens, UniProt Q12809); test: Inhibition of [35S]MK-499 binding to hERG expressed in HEK293 cells; type: toxicity, cell-based
[2] = target: T1, Proteinase-activated receptor 1 (Homo sapiens, UniProt P25116); test: Antagonist activity at human PAR-1 expressed in HEK293 cells assessed as reduction in TRAP induced calcium signal at 3 uM by FLIPR analysis; type: functional, cell-based
T1 sequence (P25116 whole entry): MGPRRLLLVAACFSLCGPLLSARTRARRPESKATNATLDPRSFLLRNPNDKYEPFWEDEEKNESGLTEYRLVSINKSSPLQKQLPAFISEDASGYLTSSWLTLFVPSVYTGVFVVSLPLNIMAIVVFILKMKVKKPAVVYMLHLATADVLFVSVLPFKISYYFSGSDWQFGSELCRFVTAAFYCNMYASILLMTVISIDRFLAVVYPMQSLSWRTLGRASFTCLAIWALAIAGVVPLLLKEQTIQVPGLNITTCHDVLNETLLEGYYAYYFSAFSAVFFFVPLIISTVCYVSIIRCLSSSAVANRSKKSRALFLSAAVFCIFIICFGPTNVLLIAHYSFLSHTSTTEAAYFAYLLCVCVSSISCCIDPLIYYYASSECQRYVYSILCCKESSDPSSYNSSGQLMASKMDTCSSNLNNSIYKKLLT

[3] = Oral bioavailability in rat at 10 mg/kg; type: ADME, organism-based; conditions: in vivo
[4] = AUC in Sprague-Dawley rat at 30 mg/kg, po; type: ADME, organism-based; set-up: dose 30 mg/kg; conditions: in vivo
[5] = Cmax in Sprague-Dawley rat at 30 mg/kg, po; type: ADME, organism-based; set-up: route oral, dose 30 mg/kg; conditions: in vivo
[6] = MRT in cynomolgus monkey at 1 mg/kg, iv; type: ADME, organism-based, Macaca fascicularis; conditions: in vivo
[7] = Clearance in dog hepatocyte measured per 10^6 cells; type: ADME, cell-based, Canis lupus familiaris; conditions: hepatocytes
[8] = Clearance in human hepatocyte measured per 10^6 cells; type: ADME, cell-based; conditions: hepatocytes
[9] = Unbound clearance in cynomolgus monkey at 0.3 mg/kg, iv; type: ADME, organism-based, Macaca fascicularis; conditions: in vivo
[10] = Dose normalized AUC in Sprague-Dawley rat at 50 mg/kg, po; type: ADME, organism-based; conditions: in vivo
[11] = Dose normalized Cmax in Sprague-Dawley rat at 10 mg/kg, po; type: ADME, organism-based; conditions: in vivo
[12] = AUC in Sprague-Dawley rat at 3 mg/kg, po; type: ADME, organism-based; set-up: dose 3 mg/kg; conditions: in vivo
[13] = Unbound volume of distribution in dog at 0.3 mg/kg, iv; type: ADME, organism-based, Canis lupus familiaris; conditions: in vivo
[14] = Dose normalized Cmax in Sprague-Dawley rat at 3 mg/kg, po; type: ADME, organism-based; conditions: in vivo
[15] = AUC in Sprague-Dawley rat at 10 mg/kg, po; type: ADME, organism-based; set-up: dose 10 mg/kg; conditions: in vivo
[16] = Ex vivo inhibition of PAR-1 in cynomolgus monkey whole blood assessed as inhibition of TRAP-induced platelet aggregation at 1 mg/kg, po measured after 24 hrs; type: functional; conditions: Macaca fascicularis
[17] = Plasma protein binding in rat assessed as unbound fraction; type: ADME, cell-free
[18] = Oral bioavailability in cynomolgus monkey at 1 mg/kg,; type: ADME, organism-based, Macaca fascicularis; conditions: in vivo
[19] = Volume of distribution in rat at 0.3 mg/kg, iv; type: ADME, organism-based; conditions: in vivo
[20] = AUC in Sprague-Dawley rat at 50 mg/kg, po; type: ADME, organism-based; set-up: dose 50 mg/kg; conditions: in vivo
[21] = Apparent permeability in MDCKII-LE cells; type: ADME, cell-based, Canis lupus familiaris; conditions: dog, MDCK
[22] = Dose normalized Cmax in Sprague-Dawley rat at 50 mg/kg, po; type: ADME, organism-based; conditions: in vivo
[23] = Dose normalized AUC in Sprague-Dawley rat at 3 mg/kg, po; type: ADME, organism-based; conditions: in vivo
[24] = Ex vivo inhibition of PAR-1 in cynomolgus monkey whole blood assessed as inhibition of TRAP-induced platelet aggregation at 0.3 mg/kg, po measured after 24 hrs; type: functional; conditions: Macaca fascicularis
[25] = Clearance in rat hepatocyte measured per 10^6 cells; type: ADME, cell-based; conditions: hepatocytes
[26] = Clearance in rat at 3 mg/kg, iv; type: ADME, organism-based; conditions: in vivo
[27] = MRT in rat at 1 mg/kg, iv; type: ADME, organism-based; conditions: in vivo
[28] = Oral bioavailability in dog at 1 mg/kg; type: ADME, organism-based, Canis lupus familiaris; conditions: in vivo
[29] = Clearance in mouse hepatocyte measured per 10^6 cells; type: ADME, cell-based; conditions: hepatocytes
[30] = Cmax in Sprague-Dawley rat at 10 mg/kg, po; type: ADME, organism-based; set-up: route oral, dose 10 mg/kg; conditions: in vivo
[31] = Cmax in Sprague-Dawley rat at 50 mg/kg, po; type: ADME, organism-based; set-up: route oral, dose 50 mg/kg; conditions: in vivo
[32] = Dose normalized AUC in Sprague-Dawley rat at 10 mg/kg, po; type: ADME, organism-based; conditions: in vivo
[33] = Toxicity in rat assessed as non-toxic AUC for tissue toxicity at 30 mg/kg; type: organism-based; conditions: in vivo
[34] = MRT in rat at 3 mg/kg, iv; type: ADME, organism-based; conditions: in vivo
[35] = Plasma protein binding in dog assessed as unbound fraction; type: ADME, cell-free, Canis lupus familiaris
[36] = Plasma protein binding in cynomolgus monkey assessed as unbound fraction; type: ADME, cell-free, Macaca fascicularis
[37] = Cmax in Sprague-Dawley rat at 3 mg/kg, po; type: ADME, organism-based; set-up: route oral, dose 3 mg/kg; conditions: in vivo
[38] = Clearance in dog at 0.3 mg/kg, iv; type: ADME, organism-based, Canis lupus familiaris; conditions: in vivo
[39] = Toxicity in rat assessed as non-toxic AUC for liver bioactivation at 30 mg/kg; type: organism-based; conditions: in vivo
[40] = Dose normalized Cmax in Sprague-Dawley rat at 30 mg/kg, po; type: ADME, organism-based; conditions: in vivo
[41] = Dose normalized AUC in Sprague-Dawley rat at 30 mg/kg, po; type: ADME, organism-based; conditions: in vivo
[42] = Unbound volume of distribution in rat at 3 mg/kg, iv; type: ADME, organism-based; conditions: in vivo
[43] = Volume of distribution in cynomolgus monkey at 0.3 mg/kg, iv; type: ADME, organism-based, Macaca fascicularis; conditions: in vivo
[44] = Volume of distribution in dog at 0.3 mg/kg, iv; type: ADME, organism-based, Canis lupus familiaris; conditions: in vivo
[45] = Unbound volume of distribution in cynomolgus monkey at 0.3 mg/kg, iv; type: ADME, organism-based, Macaca fascicularis; conditions: in vivo
[46] = Clearance in cynomolgus monkey at 0.3 mg/kg, iv; type: ADME, organism-based, Macaca fascicularis; conditions: in vivo
[47] = MRT in dog at 0.3 mg/kg, iv; type: ADME, organism-based, Canis lupus familiaris; conditions: in vivo
[48] = Unbound clearance in rat at 3 mg/kg, iv; type: ADME, organism-based; conditions: in vivo
[49] = MRT in rat at 0.5 mg/kg, iv; type: ADME, organism-based; conditions: in vivo
[50] = MRT in cynomolgus monkey at 0.3 mg/kg, iv; type: ADME, organism-based, Macaca fascicularis; conditions: in vivo
[51] = MRT in cynomolgus monkey at 0.3 mg/kg, po; type: ADME, organism-based, Macaca fascicularis; conditions: in vivo

Chain of Voltage-gated inwardly rectifying potassium channel KCNH2 (Q12809 whole entry): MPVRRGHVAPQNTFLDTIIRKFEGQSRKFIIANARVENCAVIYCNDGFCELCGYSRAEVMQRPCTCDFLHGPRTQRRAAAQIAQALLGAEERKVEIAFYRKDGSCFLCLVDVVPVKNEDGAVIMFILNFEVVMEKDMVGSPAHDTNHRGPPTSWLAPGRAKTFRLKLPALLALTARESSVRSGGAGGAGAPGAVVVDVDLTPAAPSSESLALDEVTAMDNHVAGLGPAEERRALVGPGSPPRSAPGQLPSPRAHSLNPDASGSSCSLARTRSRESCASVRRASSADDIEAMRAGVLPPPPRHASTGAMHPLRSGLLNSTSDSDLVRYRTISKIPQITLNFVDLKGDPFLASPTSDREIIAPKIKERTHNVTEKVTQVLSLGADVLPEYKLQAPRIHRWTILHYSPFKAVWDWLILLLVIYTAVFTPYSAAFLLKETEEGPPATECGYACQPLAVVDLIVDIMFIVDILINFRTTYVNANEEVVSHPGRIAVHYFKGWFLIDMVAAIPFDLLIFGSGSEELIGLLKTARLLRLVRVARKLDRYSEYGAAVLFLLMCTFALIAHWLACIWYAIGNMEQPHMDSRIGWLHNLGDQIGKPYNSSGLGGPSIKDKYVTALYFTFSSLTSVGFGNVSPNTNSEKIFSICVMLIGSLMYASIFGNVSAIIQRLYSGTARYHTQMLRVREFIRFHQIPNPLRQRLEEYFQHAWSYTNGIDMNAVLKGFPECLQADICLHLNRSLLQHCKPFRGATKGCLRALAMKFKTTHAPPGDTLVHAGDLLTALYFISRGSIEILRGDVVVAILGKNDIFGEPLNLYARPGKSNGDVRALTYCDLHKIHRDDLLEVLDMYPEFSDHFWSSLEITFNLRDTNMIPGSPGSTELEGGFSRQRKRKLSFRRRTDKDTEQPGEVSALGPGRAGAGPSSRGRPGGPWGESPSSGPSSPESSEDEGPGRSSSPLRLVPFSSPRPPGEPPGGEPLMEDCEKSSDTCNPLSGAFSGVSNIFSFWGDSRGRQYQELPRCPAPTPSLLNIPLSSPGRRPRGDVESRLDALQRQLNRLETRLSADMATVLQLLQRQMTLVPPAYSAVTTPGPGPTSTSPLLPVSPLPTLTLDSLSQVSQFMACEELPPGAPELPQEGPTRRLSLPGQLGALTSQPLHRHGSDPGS

SMILES: CCOC(=O)N1C[C@H]2[C@H](C)[C@@H](C)[C@H](/C=C/c3ccc(-c4ccccc4C#N)cn3)[C@@H]3[C@@H](C)OC(=O)[C@@]32C1
IC50 [1]: 1600 nM | IC50 [2]: 4 nM

SMILES: C[C@H]1OC(=O)[C@]2(N)CC(F)(F)[C@@H](C)[C@H](/C=C/c3ccc(-c4ccccc4C#N)cn3)[C@H]12
bioavailability [3]: 54% | AUC [4]: 97 µM·h | Cmax [5]: 12 µM | MRT [6]: 24 h | CLint [7]: 2 µL/min/1e6 cells | CLint [8]: 1.1 µL/min/1e6 cells | CL free [9]: 12 mL/min/kg | AUCt/dose [10]: 3.8 µM·h | Cmax/dose [11]: 0.56 µM | AUC [12]: 1.31 µM·h | Vdu [13]: 41 L/kg | Cmax/dose [14]: 0.12 µM | AUC [15]: 12.1 µM·h | inhibition in vivo at 1 mg/kg [16]: 100% | fraction unbound [17]: 0.09 | bioavailability [18]: 37% | Vd [19]: 3.6 L/kg | AUC [20]: 191 µM·h | Papp [21]: 38.3 ×10⁻⁶ cm/s | Cmax/dose [22]: 0.56 µM | AUCt/dose [23]: 0.44 µM·h | inhibition in vivo at 0.3 mg/kg [24]: 100% | CLint [25]: 13 µL/min/1e6 cells | clearance [26]: 31 mL/min/kg | MRT [27]: 1.4 h | bioavailability [28]: 100% | CLint [29]: 3.3 µL/min/1e6 cells | Cmax [30]: 5.6 µM | Cmax [31]: 28 µM | AUCt/dose [32]: 1.2 µM·h | AUC [33]: 44 µM·h | MRT [34]: 1.9 h | fraction unbound [35]: 0.15 | IC50 [2]: 7 nM | fraction unbound [36]: 0.15 | Cmax [37]: 360 nM | clearance [38]: 5.9 mL/min/kg | AUC [39]: 44 µM·h | Cmax/dose [40]: 0.4 µM | AUCt/dose [41]: 3.2 µM·h | Vdu [42]: 41 L/kg | Vd [43]: 2.5 L/kg | Vd [44]: 6.3 L/kg | Vdu [45]: 17 L/kg | clearance [46]: 12 mL/min/kg | MRT [47]: 18 h | CL free [48]: 352 mL/min/kg

SMILES: C[C@H]1NC(=O)[C@]2(N)CC(F)(F)[C@@H](C)[C@H](/C=C/c3ccc(-c4ccccc4C#N)cn3)[C@H]12
IC50 [1]: 33000 nM | IC50 [2]: 6 nM | MRT [49]: 2.7 h | MRT [50]: 38.4 h

SMILES: C[C@H]1OC(=O)[C@]2(O)CC(F)(F)[C@@H](C)[C@H](/C=C/c3ccc(-c4ccccc4C#N)cn3)[C@H]12
MRT [27]: 20 h | MRT [51]: > 20 h

More lines, in order of falling IC50 [2], values ahead:

IC50 [2]: 178 nM
SMILES: C[C@H]1OC(=O)[C@@H]2CC3(NC(=O)NC3=O)[C@@H](C)[C@H](c3ccc(-c4cccc(F)c4)cn3)[C@H]12 (some centres undefined)

IC50 [2]: 14 nM
SMILES: C[C@@H]1[C@@H](C)[C@@H]2CNC[C@@]23C(=O)O[C@H](C)[C@H]3[C@H]1/C=C/c1ccc(-c2ccccc2C#N)cn1
IC50 [1]: 1300 nM

IC50 [2]: 5 nM
SMILES: C[C@H]1OC(=O)[C@@H]2CC(F)(F)[C@@H](C)[C@H](c3ccc(-c4cccc(F)c4)cn3)[C@H]12
